Measurements as given in the supplement of paper PMC10949913.

Assays:
CU-ACC1 = assay: area under concentration-response curve (viability) (AUC (a.u.)); higher = less active; conditions: 48 h
How it was run: (§1)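 After 48 h of treatment with 23 nL of each library compound at 11 concentrations, three adrenocortical carcinoma cell lines in 1,536-well plates (500–1,000 cells/well, 5 µL medium) were given CellTiter-Glo for 15 minutes at room temperature. Luminescence was then read and normalised per plate to vehicle and empty-well controls. AC50 and area under the curve were drawn from fitted concentration-response curves of inhibitory or non-responding classes only.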

NCI-H295R = assay: as above; conditions: 48 h
How it was run: as §1

Structure (SMILES)	area under concentration-response curve (CU-ACC1)	area under concentration-response curve (NCI-H295R)
Cc1cc(C)cc(NC(=O)Cc2ccc(OC(C)(C)C(=O)O)cc2)c1	504	–
COc1cc2c(Oc3ccc4[nH]c(C)cc4c3F)ccnc2cc1OCC1(N)CC1	534	–
CC(C)(O)c1coc([S+](=O)([O-])NC(=O)Nc2c3c(cc4c2CCC4)CCC3)c1	–	555
CCc1cc2c(cc1N1CCC(N3CCOCC3)CC1)C(C)(C)c1[nH]c3cc(C#N)ccc3c1C2=O	416	–
COc1ncc(-c2ccc3c(Nc4cc(Oc5cc(F)cc(F)c5)cc(C(=O)O)c4)c([S+](=O)([O-])NC4CC4)cnc3c2)c(OC)n1	–	516
CCOC(=O)c1ccc(C#Cc2ccc3c(c2)C(C)(C)CCS3)nc1	505	–
COc1ccc([S+](=O)([O-])Nc2cc(-c3c(O)ccc4ccccc34)c(O)c3ccccc23)cc1	482	–
CC(C)Oc1ccc2c(=O)c(-c3ccccc3)coc2c1	–	559
OC1=CC=C(C=C1)\C2=C\C(=O)C3=C(O2)C=C(O)C=C3O	–	389
CCCN(CCC)C(=O)C\1=C\C2=CC=C(C=C2\N=C(N)/C1)C3=CC=C(C=C3)C(=O)N4CCCC4	–	581
CN1\N=N/C2=C(N=C[N]2C1=O)C(N)=O	–	581
COc1ccc(-c2cnc3c(-c4cccc5ncccc45)cnn3c2)cc1	–	595
CCc1cc(C(N)=S)ccn1	–	552
O=C(O)Cc1cccc(OCCCN(Cc2cccc(C(F)(F)F)c2Cl)CC(c2ccccc2)c2ccccc2)c1	535	–
O=C(O)c1ccc(-c2c[nH]c3ncc(-c4ccccc4)cc23)cc1C1CCCC1	–	501
C=CCN1C[C@H](C(=O)N(CCCN(C)C)C(=O)NCC)CC2c3cccc4[nH]cc(c34)C[C@H]21 (some centres undefined)	–	545
COc1ccc(Cc2ccc(NC(N)=O)cc2)cc1-c1cccc(Cl)c1	480	–
N[S+](=O)([O-])c1ccc(Nc2nc(OCC3CCCCC3)c3[nH]cnc3n2)cc1	–	554
CC1OC(OC/2=C(/OC3=C(C(=CC(=C3)O)O)C2=O)C4=CC=C(O)C=C4)C(O)C(OC(C)=O)C1OC(C)=O (centres undefined)	–	289
CCCCCCCN(CC)CCCC(O)c1ccc(N[S+](C)(=O)[O-])cc1 (centres undefined)	398	–
NC(=O)c1c(OCc2c(F)cc(Br)cc2F)nsc1NC(=O)NCCCCN1CCCC1	395	–
CN(C)CCNC(=O)COc1c2cccc1Cc1cccc(c1OCC(=O)NCCN(C)C)Cc1cccc(c1OCC(=O)NCCN(C)C)Cc1cccc(c1OCC(=O)NCCN(C)C)C2	–	485
O=C(CCc1ccc(O)cc1)c1c(O)cc(O)cc1O[C@@H]1O[C@H](CO)[C@@H](O)[C@H](O)[C@H]1O	–	242
CCOC(=O)\C1=C(/C)N\C2=C(C1C3=CC=C(C=C3)C4=CC=CC=C4)\C(=O)CC(C)(C)C2 (centres undefined)	552	–
Cc1ccc(NC(=O)c2ccc(CN3CC[C@H](N(C)C)C3)c(C(F)(F)F)c2)cc1Nc1nccc(-c2cncnc2)n1	549	–

Structure (SMILES)	area under concentration-response curve (CU-ACC1)	area under concentration-response curve (NCI-H295R)
Cc1ncc(Cl)cc1NCc1ccc(C(=O)NC(CC2CCCC2)C(=O)NC2CC2)s1 (centres undefined)	467	–
CC1(C)CCC2(CC1)N[C@@H](C(=O)N[C@@H]1CC[C@@H](C(N)=O)OC1)[C@H](c1ccnc(Cl)c1F)[C@]21C(=O)Nc2cc(Cl)ccc21	501	–
COc1cccc(OCCCN)c1-c1cc(Nc2cnc(C#N)cn2)n[nH]1	347	–
OCCN(CCO)c1nc(N2CCCCC2)c2nc(N(CCO)CCO)nc(N3CCCCC3)c2n1	478	–
OC[C@H]1O[C@H]([C@@H](F)[C@@H]1O)N2\C=C/C(=O)NC2=O	370	–
Cc1ccc(-c2ncc(Cl)cc2-c2ccc([S+](C)(=O)[O-])cc2)cn1	366	–
CCCCN(CCCC)C(=O)CN1C[C@H](c2ccc3c(c2)OCO3)[C@@H](C(=O)O)[C@@H]1c1ccc(OC)cc1	460	–
COc1ccc2cc(-c3[nH]c(-c4ccc([S+](C)[O-])cc4)nc3-c3ccncc3)ccc2c1 (centres undefined)	472	–
NC(=O)c1cccc2cn(-c3ccc([C@@H]4CCCNC4)cc3)nc12	444	–
CC[C@H]1OC(=O)[C@H](C)[C@@H](O[C@H]2C[C@@](C)(OC)[C@@H](O)[C@H](C)O2)[C@H](C)[C@@H](O[C@@H]2O[C@H](C)C[C@H](N(C)C)[C@H]2O)[C@](C)(O)C[C@@H](C)CN(C)[C@H](C)[C@@H](O)[C@]1(C)O	310	–
CCc1c(O)cc(O)c(C(=O)c2ccc(OCCN3CCOCC3)c(OC)c2)c1CC(=O)N(CCOC)CCOC	216	–
CO[C@@]12[C@H](COC(N)=O)C/3=C(N1C[C@@H]4N[C@H]24)/C(=O)/C(=C(N)\C3=O)C	378	–
O=C(O)C[C@H]1CCc2c1[nH]c1ccc(OCc3ccc(C4CCCC4)c(C(F)(F)F)c3)cc21	506	–
Clc1ccc(COC(Cn2ccnc2)c2ccc(Cl)cc2Cl)cc1 (centres undefined)	433	–
C[C@@H]1CCN(C(=O)CC#N)C[C@@H]1N(C)c1ncnc2[nH]ccc12	305	–
O=C(/C=C/N1C[C@H]2C[C@@H]1CN2c1ccccn1)c1ccccc1O	306	–
NC\1=N\C(=O)N(\C=C1)[C@H]\2[C@H](O)[C@H](O)C(=C2F)\CO	336	–
C[C@]12CC[C@H]3[C@@H](CC(=C)\C4=C\C(=O)\C=C/[C@]34C)[C@@H]1CCC2=O	320	–
CCCCCNC(=O)N1CCC(CN(Cc2ccc(Cl)cc2)Cc2ccc([N+](=O)[O-])s2)C1 (centres undefined)	509	–
O=C(O)CCCc1ccc(N(CCCl)CCCl)cc1	300	–
CC(=O)c1c(O)c(C)c(O)c(Cc2c(O)c3c(c(C(=O)/C=C/c4ccccc4)c2O)OC(C)(C)C=C3)c1O	323	–
O=[S+]([O-])(O)c1ccc2cc(/N=N/c3cc([S+](=O)([O-])O)c4cccnc4c3O)ccc2c1	500	–
FC1=CC=C(CN2\C=C/C=C(/C(=O)N[C@@H](COC3=CC4=C(NC(=O)N4)C=C3)C5=CC=CC=C5)C2=O)C=C1F	546	–
O=C(NCCCCN1CCOCC1)c1cc2ccccc2o1	461	–
